Results on 56 compounds are retold here after PubChem BioAssay AID1259418 (Broad Institute, 2018).

Several values for one entry are separate records, joined by “and”; a condition that tells them apart may be missing. Equal values may be shown once. Records with an inconclusive call do not appear. Activity calls are given as the source filed them.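 The calls were made as follows: active = fitted half-maximal concentration of signal decrease at or below twice the sample's top tested concentration; inconclusive = flat curve between -70 and -30 percent, or poor fit; inactive = flat within 30 percent, signal rise, or potency above limit.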 Starred links: 1 amine or outer side, 2 acyl side, 3 side chain; linkers in the order of their positions; H or OH if unused. Non-standard residues stand in square brackets, D forms with d. Residues, ends and D or L forms follow the SMILES beside them. Groups on a side chain read outwards from the residue. *: point of attachment. Ethylenediamine = C(CN[*:2])N[*:1]; Hyp = O=C(O)[C@@H]1C[C@@H](O)CN1; Phg = N[C@H](C(=O)O)c1ccccc1; CO = O=C([*:1])[*:2]; Bn = c1ccc(C*)cc1

This assay has as its target T. gondii ME49Luc in IFN-y HeLa, luciferase, 72 h. Nature of the assay: T. gondii growth inhibition with IFN-gamma, dose response, cell-based, ME49Luc, HeLa, luciferase, 72 h (AID 1259418).

The AC50 is the concentration at which the activity in the assay is half-maximal. For the compound `Cc1ccccc1-c1ccc(C2[C@@H]3CN(Cc4cncnc4)C[C@H]2N3)cc1` (stereo partly specified), the concentration at half-maximal activity (AC50) is 19 µM.

In the case of `O=C(CCCCCNc1nc(=S)[nH]c2ccccc12)N1CCC(O)(c2cccc(C(F)(F)F)c2)CC1`, the AC50 was > 39 µM (inactive).

With `Cc1ccc(-n2ncc3c(NCc4cccc(Cl)c4)ncnc32)c(C)c1`, the AC50 was 22.3 µM.

In the case of `O=C(CCC1N=C2c3ccccc3N=C(SCc3ccc(F)cc3)N2C1=O)NCc1ccccc1` (stereo unspecified), the AC50 was 31.8 µM.

In the case of `O=C(c1ccc(-n2nc(C(F)(F)F)c3c2CCCC3)cc1)N1CCN(c2cccc(Cl)c2)CC1`, the AC50 was 8.82 µM.

For `CCOc1ccccc1-c1nc(CN(c2cccc(OC)c2)S(=O)(=O)c2ccccc2)c(C)o1`, the AC50 was > 39 µM (inactive).

For the compound `CC(C)CC#Cc1ccc([C@H]2[C@H]3CN(C(=O)c4cccc(F)c4)CC(=O)N3[C@H]2CO)cc1`, the AC50 was 20.3 µM.

Turning to `O=C(c1ccc(-n2c(=S)[nH]c3ccccc3c2=O)cc1)N1CCC(O)(c2cccc(C(F)(F)F)c2)CC1`, the AC50 was 38 µM.

For the compound `O=C(Nc1cccc(F)c1)N1CCCCN2[C@H](CO)[C@@H](c3ccc(C#Cc4cccnc4)cc3)[C@H]2C1`, the AC50 is 19.1 µM.

For the compound `C=CCN1CCC2(CC1)CC(NCc1ccc(C)s1)c1ccccc1O2` (stereo unspecified), the AC50 is 12.1 µM.

Consider `COCC1(C(=O)N2CCc3c(nc(-c4ccccc4)[nH]c3=O)C2)CCC1`, for which the half-maximal activity concentration (AC50) was 36.2 µM.

As to `COc1cc([C@@H]2c3cc4c(cc3C(OC3O[C@@H]5COC(C)O[C@H]5[C@H](O)[C@H]3O)C3COC(=O)[C@@H]32)OCO4)cc(OC)c1O` (stereo partly specified), the AC50 is > 39 µM (inactive).

Consider `Cc1ccc(NC(=O)N2CCN(Cc3nc(-c4cccc(Cl)c4)oc3C)CC2)c(Cl)c1`, for which the AC50 is 34.2 µM.

As to `O=C(NCCc1csc(-c2ccccc2)n1)C1CCN(C(=O)c2ccc(F)c(Cl)c2)CC1`, the AC50 was 5.61 µM.

Turning to `COc1ccc(CNC(=O)CC2N=C3c4ccccc4N=C(SCc4ccc(C)cc4)N3C2=O)cc1` (stereo unspecified), the AC50 was 19.4 µM.

On to `COc1ccc(-c2ccc3nc(CO)[nH]c3c2)cc1Cl`, for which the AC50 is 16.2 µM.

As to `Cc1cc(C)c(S(=O)(=O)N2CCC3(CC2)NCCN=C3NCc2ccccc2C)cc1C`, the AC50 is 6.27 µM.

For `CCCCCCC(C)(C)c1ccc(C2CC(O)CCC2CCCO)c(O)c1` (stereo unspecified), the concentration at half-maximal activity (AC50) is 8.47 µM.

Regarding `Cc1ccc(NC(=O)N2CCN(Cc3nc(-c4cccc(Cl)c4)oc3C)CC2)cc1`, the AC50 was > 39 µM (inactive).

Regarding `O=C(CCc1ccccc1)N1CCC2(CC1)Nc1ccc(Cl)cc1-n1cccc12`, the AC50 was 27.4 µM.

In the case of `COc1cccc(-c2ccc3c(c2)[C@H]2[C@H](CCN2S(=O)(=O)c2ccccc2F)[C@@H](CO)N3)c1`, the AC50 is 25 µM and 6.64 µM.

In the case of `COc1ccccc1-c1nc(Cn2nnc(-c3nc(-c4ccc(C)cc4)no3)c2C)c(C)o1`, the AC50 is > 20 µM (inactive).

Regarding `CN(c1ccc(F)cc1)c1nc(-c2ccc(Cl)cc2)nc2ccccc12`, the AC50 is 13.9 µM.

Consider `O=C(CC1N=C2c3ccccc3N=C(SCc3ccccc3Cl)N2C1=O)NCc1ccco1` (stereo unspecified), for which the AC50 is > 39 µM (inactive).

Take `O=C(c1ccc(F)cc1)N1CC(=O)N2[C@@H](CO)[C@H](c3ccc(C#CCC4CCCC4)cc3)[C@@H]2C1`: the AC50 was 17.9 µM and 10.9 µM.

For the compound `O=C(c1cnccn1)N1CC(=O)N2[C@H](CO)[C@H](c3ccc(/C=C/c4ccccc4)cc3)[C@@H]2C1`, the half-maximal activity concentration (AC50) was 24.8 µM.

Take `COc1cccc(S(=O)(=O)N2CCCCN3[C@H](CO)[C@H](c4ccc(C#CCC(C)C)cc4)[C@@H]3C2)c1`: the concentration at half-maximal activity (AC50) is 13.6 µM and 2.35 µM.

Consider `COc1ccc(CC(=O)Nc2ccc3c(c2)CCC(=O)N3C)c(Cl)c1`, for which the AC50 is 21.2 µM.

`N#C[C@H]1[C@@H](c2ccc(-c3cccnc3)cc2)[C@@H](CO)N1C(=O)Nc1ccc(F)cc1`: the concentration at half-maximal activity (AC50) was 12.7 µM.

For the compound `CCCNC(=O)[C@@H]1[C@@H](CO)[C@@H]2Cn3c(ccc(/C=C/c4ccccc4)c3=O)[C@@H]2N1CC1CC1`, the AC50 was 18.5 µM.

Take `COc1cccc(NC(=O)N2CC(=O)N3[C@@H](CO)[C@H](c4ccc(C#CCC5CCCC5)cc4)[C@@H]3C2)c1`: the AC50 is 20 µM.

As for `Cc1ccccc1-c1ccc([C@H]2[C@H](CO)N3C(=O)CN(C(=O)c4ccncc4)C[C@@H]23)cc1`, the half-maximal activity concentration (AC50) is 21.5 µM.

As for `COc1cc(NC(=O)Nc2ccc(-c3nc(-c4cc(C)ccc4C)co3)cc2)cc(OC)c1OC`, the AC50 is 14.5 µM.

In the case of `CCOc1ccc(-c2nc(CN3CCN(C(=O)Nc4cccc(Cl)c4)CC3)c(C)o2)cc1`, the AC50 is 17.1 µM.

Take `COc1ccc(C#Cc2ccc([C@H]3[C@@H](CO)N4C(=O)CN(C(=O)NC(C)C)C[C@@H]34)cc2)cc1`: the AC50 was 22.3 µM.

For `O=C(NCCc1csc(-c2ccccc2)n1)C1CCN(C(=O)Cc2cccc(F)c2)CC1`, the AC50 was 2.76 µM.

With `CCN1CCN(Cc2ccc(Nc3nc(-c4ccc(OC)cc4)nc4ccccc34)cc2)CC1`, the AC50 was 11.3 µM and 12.5 µM.

As to `Cc1ccc(-c2nc(CN3CCN(C(=O)Nc4ccccc4)CC3)c(C)o2)cc1`, the half-maximal activity concentration (AC50) was 17.5 µM.

In the case of `Cc1cc(C)cc(S(=O)(=O)N2CCC[C@@H]2C(=O)NCCc2csc(-c3ccccc3)n2)c1`, the AC50 is 13.5 µM.

For the compound `Clc1ccc(CNc2nc(SCc3cccc(Cl)c3)nc3ccccc23)cc1`, the AC50 is 5.24 µM.

For `COc1ccc(S(=O)(=O)N(C)C[C@H]2Oc3c(NC(=O)c4nc5ccccc5s4)cccc3C(=O)N([C@@H](C)CO)C[C@@H]2C)cc1`, the AC50 is 1.77 µM and 0.196 µM.

As for `O=C(c1ccc(-n2nc(C(F)(F)F)c3c2CCCC3)cc1)N1CCN(C2CCCCC2)CC1`, the concentration at half-maximal activity (AC50) is 10.1 µM and > 39 µM (inactive).

`Fc1cccnc1OC1COC2(CCN(Cc3ccsc3)CC2)C1` (stereo unspecified): the AC50 is 24.8 µM.

For `O=C(CC1CC1)N1CC[C@@H]2[C@@H](CO)Nc3ccc(-c4ccc(F)cc4)cc3[C@@H]21`, the AC50 is 21.1 µM.

In the case of `CCCNC(=O)[C@H]1[C@H](CO)[C@H]2Cn3c(ccc(C4=CCCCC4)c3=O)[C@H]2N1Cc1ccccc1F`, the AC50 is 8.99 µM.

As to `Cc1oc(-c2cccc(Cl)c2)nc1CN1CCN(C(=O)Nc2ccc(Cl)cc2)CC1`, the AC50 was 22.4 µM.

Turning to `CCc1ccccc1-c1cccc(-n2cnnc2)c1`, the AC50 is 19.9 µM.

For the compound `CS(=O)(=O)N1CC(=O)N2[C@H](C1)[C@@H](c1ccc(C#Cc3ccc(F)cc3)cc1)[C@@H]2CO`, the AC50 was 22.8 µM.

For the compound `COc1ccccc1C#Cc1ccc([C@H]2[C@H](CO)N3CCCCN(C(=O)C4CCC4)C[C@@H]23)cc1`, the AC50 is 13.5 µM and 5.77 µM.

On to `COc1ccccc1-c1nc(C)c(-c2ccc(SCc3c(F)cccc3Cl)nn2)s1`, for which the half-maximal activity concentration (AC50) was 38.4 µM.

For `NCCCC[C@@H]1NC(=O)[C@@H](Cc2c[nH]c3ccccc23)NC(=O)[C@H](c2ccccc2)NC(=O)[C@@H]2C[C@@H](OC(=O)NCCN)CN2C(=O)[C@H](Cc2ccccc2)NC(=O)[C@H](Cc2ccc(OCc3ccccc3)cc2)NC1=O` (cyclo([Hyp]([CO-Ethylenediamine])[Phg][dW]KY(Bn)F)), the AC50 is 15.9 µM.

`Cc1ccc(CNc2nc(-c3ccc(Cl)cc3)nc3ccccc23)cc1`: the AC50 was 37 µM.

Turning to `COc1ccc(-c2nc(Nc3ccc(C)cc3)c3ccccc3n2)cc1`, the half-maximal activity concentration (AC50) is 19.1 µM.

On to `CCOc1ccc(-c2nc(CN3CCN(C(=O)Nc4ccccc4)CC3)c(C)o2)cc1`, for which the AC50 is 16.9 µM.

In the case of `O=C(Nc1cccc(F)c1)N1CCCCN2[C@H](CO)[C@H](c3ccc(C#Cc4cccnc4)cc3)[C@@H]2C1`, the AC50 is 2.07 µM and 1.05 µM.

For the compound `CC(C)CCN1Cc2c(C(=O)Nc3cccc(F)c3)ncn2-c2ccccc2S1(=O)=O`, the AC50 is 13 µM.
